Experimental data as given in patent EP1513525B1, “USE OF MGLUR5 ANTAGONISTS FOR THE TREATMENT OF GERD” (AstraZeneca AB, priority 2002, dated 2003).

Legend:
TLESRs [1] = assay: Screening for compounds active against TLESR, Barostat model (nutrient meal followed by air infusion, intragastric pressure held at 10±1 mmHg); assay type: in vivo, Adult Labrador retrievers; conditions: inhibition of the number of TLESRs, infusion during 55 min
Description: (§1) Adult Labrador retrievers of both genders, trained to stand in a Pavlov sling, are used. Mucosa-to-skin esophagostomies are formed and the dogs are allowed to recover completely before any experiments are done.
(§2) In brief, after fasting for approximately 17 h with free supply of water, a multilumen sleeve/sidehole assembly (Dentsleeve, Adelaide, South Australia) is introduced through the esophagostomy to measure gastric, lower esophageal sphincter (LES) and esophageal pressures. The assembly is perfused with water using a low-compliance manometric perfusion pump (Dentsleeve, Adelaide, South Australia). An air-perfused tube is passed in the oral direction to measure swallows, and an antimony electrode monitored pH, 3 cm above the LES. All signals are amplified and acquired on a personal computer at 10 Hz.
Ten min after i.v. administration, a nutrient meal (10% peptone, 5% D-glucose, 5% Intralipid, pH 3.0) is infused into the stomach through the central lumen of the assembly at 100 ml/min to a final volume of 30 ml/kg. Immediately following the meal, air is insufflated at 40 ml/min. In an alternative model (Barostat model), the infusion of the nutrient meal is followed by air infusion at a rate of 500 ml/min until a intragastric pressure of 10±1 mmHg is obtained. […]

TLESRs [2] = assay: Screening for compounds active against TLESR, standard model (nutrient meal followed by air insufflation at 40 ml/min); assay type: in vivo, Adult Labrador retrievers
Description: as §1, §2
When a baseline measurement free from fasting gastric/LES phase III motor activity has been obtained, placebo (0.9% NaCl) or test compound is administered intravenously (i.v., 0.5 ml/kg) in a foreleg vein. Ten min after i.v. administration, a nutrient meal (10% peptone, 5% D-glucose, 5% Intralipid, pH 3.0) is infused into the stomach through the central lumen of the assembly at 100 ml/min to a final volume of 30 ml/kg. Immediately following the meal, air is insufflated at 40 ml/min. In an alternative model (Barostat model), the infusion of the nutrient meal is followed by air infusion at a rate of 500 ml/min until a intragastric pressure of 10±1 mmHg is obtained. The pressure is then maintained at this level throughout the experiment using the infusion pump for further air infusion or for venting air from the stomach. The experimental time from start of nutrient infusion to end of air insufflation is 45 min. The procedure has been validated as a reliable means of triggering TLESRs.
TLESRs is defined as a decrease in lower esophageal sphincter pressure (with reference to intragastric pressure) at a rate of >1 mmHg/s. The relaxation should not be preceded by a pharyngeal signal ≤2s before its onset in which case the relaxation is classified as swallow-induced. The pressure difference between the LES and the stomach should be less than 2 mmHg, and the duration of the complete relaxation longer than 1 s.
2-Methyl-6-(phenylethynyl)-pyridine (MPEP) was prepared according to the procedure described by K. Sonogashira et al. in Tetrahedron Lett. (1975), 50, 4467-4470. After purification by column chromatography (SiO2), the hydrochloride salt (the hydrochloride salt of 2-methyl-6-(phenylethynyl)-pyridine is also commercially available from e.g. Tocris) was prepared by introducing HCl(g) to an ice-cooled Et2O-solution of the product. The hydrochloride salt of MPEP was tested on adult Labrador retrievers of both genders in accordance with the test model described above.
Inhibition of the number of TLESRs was calculated with regard to the five preceding control experiments for each dog, and the results as set out in Tables 1.1 and 1.2 below were achieved. Table 1.1 - Standard model

| Compound | % INHIBITION ± SEM (N) (TLESRs [1]; dose 1.1 µmol/kg/h, N=4 dogs) | % INHIBITION ± SEM (N) (TLESRs [1]; dose 2.2 µmol/kg/h, N=2 dogs) | % INHIBITION ± SEM (N) (TLESRs [2]; inhibition of the number of TLESRs vs five preceding control experiments per dog, dose 1.4 µmol/kg i.v., N=4 dogs) | % INHIBITION ± SEM (N) (TLESRs [2]; inhibition of the number of TLESRs vs five preceding control experiments per dog, dose 4.3 µmol/kg i.v., N=4 dogs) | % INHIBITION ± SEM (N) (TLESRs [2]; inhibition of the number of TLESRs vs five preceding control experiments per dog, dose 8.7 µmol/kg i.v., N=3 dogs) | % INHIBITION ± SEM (N) (TLESRs [2]; inhibition of the number of TLESRs, dose 4 µmol/kg/h, infusion during 60 min, N=4 dogs) | % INHIBITION ± SEM (N) (TLESRs [2]; inhibition of the number of TLESRs, dose 6 µmol/kg/h, infusion during 60 min, N=2 dogs) |
| --- | --- | --- | --- | --- | --- | --- | --- |
| COCc1cc(C#N)cc(-c2nc(-c3ccc(F)cn3)no2)c1 [3-[3-(5-fluoropyridin-2-yl)-1,2,4-oxadiazol-5-yl]-5-(methoxymethyl)benzonitrile] | 58 ± 11 (4) % | 83 ± 17 (2) % | – | – | – | – | – |
| Cc1cccc(C#Cc2ccccc2)n1 [MPEP, 2-Methyl-6-(phenylethynyl)-pyridine] | – | – | 30 ± 5 (4) % | 57 ± 8 (4) % | 59 ± 11 (3) % | 32 ± 13 (4) % | 43 ± 3 (2) % |
